This is an account of results in patent US10111874B2, “Combination therapies for treatment of cancer” (Araxes Pharma LLC, priority 2014, dated 2018).

In this experiment the target is T1, KRAS G12C 1-169, his-tagged protein, GDP-loaded (Homo sapiens, UniProt P01116, G12C).
T1 construct: KRAS G12C 1-169, his-tagged protein, GDP-loaded
T1 sequence (P01116 1-169 isoform P01116-2 G12C): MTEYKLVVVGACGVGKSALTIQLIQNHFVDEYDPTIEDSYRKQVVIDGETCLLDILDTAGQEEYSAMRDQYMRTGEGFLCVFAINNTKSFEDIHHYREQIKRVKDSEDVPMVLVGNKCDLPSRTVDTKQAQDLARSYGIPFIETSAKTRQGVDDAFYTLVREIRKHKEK
Nature of the experiment: Biochemical assay: covalent binding to KRAS G12C analyzed by mass spectrometry. Also: test concentration or dose not given here. Particulars: compounds 48-246, measured at 2 h.
`C=CC(=O)N1CCN(c2ncnc3cc(Cl)ccc23)CC1C#N` (stereo not drawn) [Compound I-48, 1-acryloyl-4-(7-chloroquinazolin-4-yl)piperazine-2-carbonitrile]: the Binding % result was “++++ (++++indicates binding activity greater than 75%)”. The result for `C=CC(=O)N1CCN(c2ncnc3cc(Cl)c(Br)cc23)CC1C#N` (stereo not drawn) [Compound I-49, 1-acryloyl-4-(6-bromo-7-chloroquinazolin-4-yl)piperazine-2-carbonitrile] reads “++++ (++++indicates binding activity greater than 75%)”; that for `C=CC(=O)N1CCN(c2ncnc3cc(Cl)c(-c4cccs4)cc23)CC1C#N` (stereo not drawn) [Compound I-51, 1-acryoyl-4-(7-chloro-6-(thiophen-2-yl)quinazaolin-4-yl)piperazine-2-carbonitrile], “++++ (++++indicates binding activity greater than 75%)”. The result for `C=CC(=O)N1CCN(c2ncnc3cc(Cl)c(-c4ccccc4)cc23)CC1C#N` (stereo not drawn) [Compound I-52, 1-acryloyl-4-(7-chloro-6-phenylquinazolin-4-yl)piperazine-2-carbonitrile] reads “++++ (++++indicates binding activity greater than 75%)”; that for `C=CC(=O)N1CCN(c2ncnc3cc(Cl)c(C#N)cc23)CC1C#N` (stereo not drawn) [Compound I-53, 4-(4-acryloyl-3-cyanopiperazin-1-yl)-7-chloroquinazoline-6-carbonitrile], “++++ (++++indicates binding activity greater than 75%)”; that for `C=CC(=O)N1CCN(c2ncnc3cc(Cl)c(-c4ccc(Cl)cc4)cc23)C[C@H]1C(N)=O` [Compound I-54, (S)-1-acryloyl-4-(7-chloro-6-(4-chlorophenyl)quinazolin-4-yl)piperazine-2-carboxamide], “++ (++indicates binding activity greater than 25% and up to 50%)”. The value for `C=CC(=O)N1CCN(c2ncnc3cc(Cl)c(C4CC4)cc23)CC1C#N` (stereo not drawn) [Compound I-55, 1-acryloyl-4-(7-chloro-6-cyclopropylquinazolin-4-yl)piperazine-2-carbonitrile] was “++++ (++++indicates binding activity greater than 75%)”. Regarding `C=CC(=O)N1CCN(c2nc(C)nc3cc(Cl)c(-c4ccc(Cl)cc4)cc23)CC1C#N` (stereo not drawn) [Compound I-56, 1-acryloyl-4-(7-chloro-6-(4-chlorophenyl)-2-methylquinazolin-4-yl)piperazine-2-carbonitrile], the Binding % entry was “++++ (++++indicates binding activity greater than 75%)”. The result for `C=CC(=O)N1CCN(c2ncnc3ccccc23)CC1C#N` (stereo not drawn) [Compound I-57, 1-acryloyl-4-(quinazolin-4-yl)piperazine-2-carbontrile] reads “+ (+indicates binding activity from 5% to 25%)”; that for `C=CC(=O)N1CCN(c2ncnc3cc(Cl)c(-c4ccc(Cl)cc4)cc23)C[C@@H]1C#N` [Compound I-58, (R)-1-acryloyl-4-(7-chloro-6-(4-chlorophenyl)quinazolin-4-yl)piperazine-2-carbonitrile], “+++ (+++indicates binding activity greater than 50% and up to 75%)”; that for `C=CC(=O)N1CCN(c2ncnc3cc(Cl)c(-c4ccc(Cl)cc4)cc23)C[C@H]1C#N` [Compound I-59, (S)-1-acryloyl-4-(7-chloro-6-(4-chlorophenyl)quinazolin-4-yl)piperazine-2-carbonitrile], “++++ (++++indicates binding activity greater than 75%)”. With `C=CC(=O)N1CCN(c2ncnc3cc(Cl)c(-c4ccc(Cl)cc4)cc23)CC1CN(C)C` (stereo not drawn) [Compound I-60, 1-(4-(7-chloro-6-(4-chlorophenyl)quinazolin-4-yl)-2-((dimethylamino)methyl)piperazin-1-yl)prop-2-en-1-one], the Binding % entry is “+ (+indicates binding activity from 5% to 25%)”. `C=CC(=O)N1CCN(c2nccc3cc(Cl)ccc23)CC1C#N` (stereo not drawn) [Compound I-61, 1-acryloyl-4-(6-chloroisoquinolin-1-yl)piperazine-2-carbonitrile]: the Binding % entry is reported as “+ (+indicates binding activity from 5% to 25%)”. The result for `C=CC(=O)N1CCN(c2ncnc3cc(Cl)c(-c4ccc(Cl)cc4)cc23)CC1CCO` (stereo not drawn) [Compound I-62, 1-(4-(7-chloro-6-(4-chlorophenyl)quinazolin-4-yl)-2-(2-hydroxyethyl)piperazin-1-yl)prop-2-en-1-one] reads “+ (+indicates binding activity from 5% to 25%)”. The result for `C=CC(=O)N1CCN(c2ncnc3cc(Cl)c(-c4ccc(Cl)cc4)cc23)C[C@H]1CO` [Compound I-63, (S)-1-(4-(7-chloro-6-(4-chlorophenyl)quinazolin-4-yl)-2-(hydroxymethyl)piperazin-1-yl)prop-2-en-1-one] reads “+ (+indicates binding activity from 5% to 25%)”; that for `C=CC(=O)N1CCN(c2ncnc3cc(Cl)c(-c4ccc(Cl)cc4)cc23)C[C@@H]1C(N)=O` [Compound I-64, (R)-1-acryloyl-4-(7-chloro-6-(4-chlorophenyl)quinazolin-4-yl)piperazine-2-carboxamide], “++ (++indicates binding activity greater than 25% and up to 50%)”. In the case of `C=CC(=O)N1CCN(c2ncnc3cc(Cl)c(-c4ccc(Cl)cc4)cc23)C[C@@H]1CO` [Compound I-65, (R)-1-(4-(7-chloro-6-(4-chlorophenyl)quinazolin-4-yl)-2-(hydroxymethyl)piperazin-1-yl)prop-2-en-1-one], the Binding % result was “+ (+indicates binding activity from 5% to 25%)”. As to `CN(C)C/C=C/C(=O)N1CCN(c2ncnc3cc(Cl)c(-c4ccc(Cl)cc4)cc23)CC1C#N` (stereo not drawn) [Compound I-66, (E)-4-(7-Chloro-6-(4-chlorophenyl)quinazolin-4-yl)-1-(4-(dimethylamino)but-2-enoyl)piperazine-2-carbonitrile], the Binding % result is “++++ (++++indicates binding activity greater than 75%)”.

`C=CC(=O)N1CCN(c2ncnc3cc(-c4ccccc4)c(Cl)cc23)CC1` [Compound I-67, 1-(4-(6-chloro-7-phenylquinazolin-4-yl)piperazin-1-yl)prop-2-en-1-one]: the Binding % entry is “+++ (+++indicates binding activity greater than 50% and up to 75%)”. The value for `C=CC(=O)N1CCN(c2ncnc3cc(C4CC4)c(Cl)cc23)CC1` [Compound I-68, 1-(4-(6-chloro-7-cyclopropylquinazolin-4-yl)piperazin-1-yl)prop-2-en-1-one] was “+ (+indicates binding activity from 5% to 25%)”. For `C=CC(=O)N1CCN(c2ncnc3cc(Cl)c(-c4ccc(Cl)cc4)cc23)CC1CC(N)=O` (stereo not drawn) [Compound I-69, 2-(1-acryloyl-4-(7-chloro-6-(4-chlorophenyl)quinazolin-4-yl)piperazin-2-yl)acetamide], the Binding % entry is given as “+ (+indicates binding activity from 5% to 25%)”. Turning to `C=CC(=O)N1CCN(c2ncnc3cc(Cl)c(-c4ccc(Cl)cc4)cc23)CC1CC#N` (stereo not drawn) [Compound I-70, 2-(1-acryloyl-4-(7-chloro-6-(4-chlorophenyl)quinazolin-4-yl)piperazin-2-yl)acetonitrile], the Binding % result was “+++ (+++indicates binding activity greater than 50% and up to 75%)”. The result for `C=CC(=O)N1CCN(c2ncnc3ccc(-c4ccc(Cl)cc4)cc23)CC1` [Compound I-71, 1-(4-(6-(4-chlorophenyl)quinazolin-4-yl)piperazin-1-yl)prop-2-en-1-one] reads “+ (+indicates binding activity from 5% to 25%)”; that for `C=CC(=O)N1CCN(c2ncnc3cc(-c4ccccc4Cl)c(Cl)cc23)CC1` [Compound I-72, 1-(4-(6-chloro-7-(2-chlorophenyl)quinazolin-4-yl)piperazin-1-yl)prop-2-en-1-one], “++ (++indicates binding activity greater than 25% and up to 50%)”; that for `C=CC(=O)N1CCN(c2ncnc3cc(-c4cccc(Cl)c4)c(Cl)cc23)CC1` [Compound I-73, 1-(4-(6-chloro-7-(3-chlorophenyl)quinazolin-4-yl)piperazin-1-yl)prop-2-en-1-one], “++ (++indicates binding activity greater than 25% and up to 50%)”.

For `C=CC(=O)N1CCN(c2ncnc3cc(-c4cccc(O)c4)c(Cl)cc23)CC1` [Compound I-75, 1-(4-(6-chloro-7-(3-hydroxyphenyl)quinazolin-4-yl)piperazin-1-yl)prop-2-en-1-one], the Binding % entry is reported as “+ (+indicates binding activity from 5% to 25%)”.

Turning to `C=CC(=O)N1CCN(c2ncnc3cc(Oc4ccccc4)c(Cl)cc23)CC1` [Compound I-76, 1-(4-(6-chloro-7-phenoxyquinazolin-4-yl)piperazin-1-yl)prop-2-en-1-one], the Binding % result was “+ (+indicates binding activity from 5% to 25%)”. The value for `C=CC(=O)N1CCN(c2ncnc3cc(-c4ccccc4CC)c(Cl)cc23)CC1` [Compound I-77, 1-(4-(6-chloro-7-(2-ethylphenyl)quinazolin-4-yl)piperazin-1-yl)prop-2-en-1-one] was “+++ (+++indicates binding activity greater than 50% and up to 75%)”; that for `C=CC(=O)N1CCN(c2ncnc3cc(-c4ccc(Cl)cc4)c(Cl)cc23)CC1` [Compound I-78, 1-(4-(6-chloro-7-(4-chlorophenyl)quinazolin-4-yl)piperazin-1-yl)prop-2-en-1-one] was “+ (+indicates binding activity from 5% to 25%)”; that for `C=CC(=O)N1CCN(c2ncnc3cc(-c4cccc(CC)c4)c(Cl)cc23)CC1` [Compound I-79, 1-(4-(6-chloro-7-(3-ethylphenyl)quinazolin-4-yl)piperazin-1-yl)prop-2-en-1-one] was “+ (+indicates binding activity from 5% to 25%)”. Regarding `C=CC(=O)N1CCN(c2ncnc3cc(N4CCNCC4)c(Cl)cc23)CC1` [Compound I-80, 1-(4-(6-chloro-7-(piperazin-1-yl)quinazolin-4-yl)piperazin-1-yl)prop-2-en-1-one], the Binding % result is recorded as “+ (+indicates binding activity from 5% to 25%)”. With `C=CC(=O)N1CCN(c2ncnc3cc(-c4ccccc4F)c(Cl)cc23)CC1` [Compound I-81, 1-(4-(6-chloro-7-(2-fluorophenyl)quinazolin-4-yl)piperazin-1-yl)prop-2-en-1-one], the Binding % entry is “+++ (+++indicates binding activity greater than 50% and up to 75%)”. The result for `CN(C)C/C=C/C(=O)N1CCN(c2ncnc3cc(-c4ccccc4)c(Cl)cc23)CC1` [Compound I-82, (E)-1-(4-(6-chloro-7-phenylquinazolin-4-yl)piperazin-1-yl)-4-(dimethylamino)but-2-en-1-one] reads “+ (+indicates binding activity from 5% to 25%)”.
